# From PubChem BioAssay (NCI)
#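 Results reflect a 48-hour exposure of cells in 96-well plates to compound at five concentrations. TGI marks complete inhibition of growth.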
# Assays:
# Assay in all cases: NCI-60 cell line screen, 48 h
# [1] = test system: NCI/ADR-RES ovarian
# [2] = test system: A498 renal
# [3] = test system: OVCAR-5 ovarian
# [4] = test system: SN12C renal
# [5] = test system: U251 CNS
# [6] = test system: RPMI-8226 leukemia
# [7] = test system: UACC-257 melanoma
# [8] = test system: HOP-62 NSCLC
# [9] = test system: MALME-3M melanoma
# [10] = test system: MDA-N
# [11] = test system: SK-OV-3 ovarian
# [12] = test system: LOX IMVI melanoma
# [13] = test system: UACC-62 melanoma
# [14] = test system: SF-268 CNS
# [15] = test system: EKVX NSCLC
# [16] = test system: DU-145 prostate
# [17] = test system: MDA-MB-435
# [18] = test system: BT-549 breast
# [19] = test system: RXF 393 renal
# [20] = test system: SNB-19 CNS
# [21] = test system: HCT-116 colon
# [22] = test system: HL-60(TB) leukemia
# [23] = test system: K-562 leukemia
# [24] = test system: SK-MEL-5 melanoma
# [25] = test system: HS 578T breast
# [26] = test system: SK-MEL-28 melanoma
# [27] = test system: SNB-75 CNS
# [28] = test system: CAKI-1 renal
# [29] = test system: TK-10 renal
# [30] = test system: HCC-2998 colon
# [31] = test system: ACHN renal
# [32] = test system: NCI-H226 lung
# [33] = test system: NCI-H23 lung
# [34] = test system: IGROV1 ovarian
# [35] = test system: SF-539 CNS
# [36] = test system: SF-295 CNS
# [37] = test system: NCI-H460 lung
# [38] = test system: PC-3 prostate
# [39] = test system: MDA-MB-231 breast
# [40] = test system: NCI-H522 lung
# [41] = test system: 786-0 renal
# [42] = test system: HOP-92 NSCLC
# [43] = test system: KM12 colon
# [44] = test system: M14 melanoma
# [45] = test system: COLO 205 colon
# [46] = test system: HT29 colon
# [47] = test system: SR leukemia
# [48] = test system: MOLT-4 leukemia
# [49] = test system: SK-MEL-2 melanoma
# [50] = test system: OVCAR-3 ovarian
# [51] = test system: UO-31 renal
# [52] = test system: SW-620 colon
# [53] = test system: MCF7 breast
# [54] = test system: OVCAR-4 ovarian
# [55] = test system: HCT-15 colon
# [56] = test system: A549 NSCLC
# [57] = test system: OVCAR-8 ovarian
# [58] = test system: T-47D breast
# [59] = test system: CCRF-CEM leukemia
smiles,measurement,setting,value
C/C(Cl)=N/OC(=O)Nc1ccc(F)c([N+](=O)[O-])c1,TGI,[1],> 100 µM
same,TGI,[2],39 µM
same,TGI,[3],> 53.4 µM
same,TGI,[4],19.4 µM
same,TGI,[5],41.9 µM
same,TGI,[6],> 25.7 µM
same,TGI,[7],53.2 µM
same,TGI,[8],33.9 µM
same,TGI,[9],8.88 µM
same,TGI,[10],35.1 µM
same,TGI,[11],45 µM
same,TGI,[12],18.5 µM
same,TGI,[13],> 63.2 µM
same,TGI,[14],32.8 µM
same,TGI,[15],33.1 µM
same,TGI,[16],33 µM
same,TGI,[17],30.8 µM
same,TGI,[18],29.8 µM
same,TGI,[19],25.4 µM
same,TGI,[20],37.3 µM
same,TGI,[21],> 30.8 µM
same,TGI,[22],6.02 µM
same,TGI,[23],> 23.9 µM
same,TGI,[24],29.2 µM
same,TGI,[25],16.4 µM
same,TGI,[26],37.1 µM
same,TGI,[27],25 µM
same,TGI,[28],3.69 µM
same,TGI,[29],13.2 µM
same,TGI,[30],> 100 µM
same,TGI,[31],8.23 µM
same,TGI,[32],70.1 µM
same,TGI,[33],48.5 µM
same,TGI,[34],17.9 µM
same,TGI,[35],> 100 µM
same,TGI,[36],> 100 µM
same,TGI,[37],> 100 µM
same,TGI,[38],33.2 µM
same,TGI,[39],37.4 µM
same,TGI,[40],4.27 µM
same,TGI,[41],16.5 µM
same,TGI,[42],> 72.5 µM
same,TGI,[43],33.8 µM
same,TGI,[44],> 48 µM
same,TGI,[45],5.38 µM
same,TGI,[46],> 52.7 µM
same,TGI,[47],30.7 µM
same,TGI,[48],3.9 µM
same,TGI,[49],32.2 µM
same,TGI,[50],35.8 µM
same,TGI,[51],20.5 µM
same,TGI,[52],25.6 µM
same,TGI,[53],> 49 µM
same,TGI,[54],40.7 µM
same,TGI,[55],12.6 µM
same,TGI,[56],> 58.7 µM
same,TGI,[57],31.7 µM
Cc1cn(C2OC(CO[Si](C)(C)C(C)(C)C)/C(=C\C#N)C2O[Si](C)(C)C(C)(C)C)c(=O)[nH]c1=O (centres undefined),TGI,[1],> 100 µM
same,TGI,[2],> 100 µM
same,TGI,[3],> 100 µM
same,TGI,[4],> 100 µM
same,TGI,[5],> 100 µM
same,TGI,[6],> 100 µM
same,TGI,[7],> 100 µM
same,TGI,[8],> 100 µM
same,TGI,[10],> 100 µM
same,TGI,[11],> 100 µM
same,TGI,[12],> 100 µM
same,TGI,[13],> 100 µM
same,TGI,[14],> 100 µM
same,TGI,[58],> 100 µM
same,TGI,[59],> 100 µM
same,TGI,[16],> 100 µM
same,TGI,[17],> 100 µM
same,TGI,[19],92 µM
same,TGI,[20],> 100 µM
same,TGI,[21],> 100 µM
same,TGI,[23],> 100 µM
same,TGI,[24],> 100 µM
same,TGI,[25],> 100 µM
same,TGI,[26],> 100 µM
same,TGI,[27],> 100 µM
same,TGI,[28],> 100 µM
same,TGI,[29],> 100 µM
same,TGI,[31],> 100 µM
same,TGI,[32],> 100 µM
same,TGI,[33],> 100 µM
same,TGI,[35],97.1 µM
same,TGI,[36],83.5 µM
same,TGI,[37],> 100 µM
same,TGI,[38],> 100 µM
same,TGI,[39],> 100 µM
same,TGI,[41],> 100 µM
same,TGI,[42],> 100 µM
same,TGI,[43],> 100 µM
same,TGI,[44],> 100 µM
same,TGI,[45],> 100 µM
same,TGI,[46],> 100 µM
same,TGI,[47],> 100 µM
same,TGI,[48],> 100 µM
same,TGI,[49],37.1 µM
same,TGI,[50],> 100 µM
same,TGI,[51],> 100 µM
same,TGI,[52],> 100 µM
same,TGI,[53],> 100 µM
same,TGI,[54],> 100 µM
same,TGI,[55],> 100 µM
same,TGI,[56],> 100 µM
CCCCCCCCCCCCCCCCP(=O)(O)OCC(N)C(=O)O (centres undefined),TGI,[1],> 100 µM
same,TGI,[2],52.2 µM
same,TGI,[3],65.1 µM
same,TGI,[4],> 100 µM
same,TGI,[5],> 100 µM
same,TGI,[6],62.7 µM
same,TGI,[7],> 100 µM
same,TGI,[8],47.9 µM
same,TGI,[9],> 100 µM
same,TGI,[10],> 100 µM
same,TGI,[11],> 100 µM
same,TGI,[12],40.1 µM
same,TGI,[13],> 100 µM
same,TGI,[14],74 µM
same,TGI,[58],> 100 µM
same,TGI,[15],> 100 µM
same,TGI,[59],> 100 µM
same,TGI,[16],> 100 µM
same,TGI,[17],> 100 µM
same,TGI,[19],75.1 µM
same,TGI,[20],44.8 µM
same,TGI,[21],48.9 µM
same,TGI,[22],39.2 µM
same,TGI,[23],> 100 µM
same,TGI,[24],> 100 µM
same,TGI,[25],> 100 µM
same,TGI,[26],> 100 µM
same,TGI,[27],65.1 µM
same,TGI,[28],56.2 µM
same,TGI,[30],> 100 µM
same,TGI,[31],68.8 µM
same,TGI,[32],> 100 µM
same,TGI,[33],> 100 µM
same,TGI,[34],28.9 µM
same,TGI,[35],72.3 µM
same,TGI,[36],44.8 µM
same,TGI,[37],64.9 µM
same,TGI,[38],41.5 µM
same,TGI,[39],82.7 µM
same,TGI,[40],42.8 µM
same,TGI,[41],> 100 µM
same,TGI,[42],48.2 µM
same,TGI,[43],43.7 µM
same,TGI,[44],> 100 µM
same,TGI,[45],> 100 µM
same,TGI,[46],> 100 µM
same,TGI,[47],91.3 µM
same,TGI,[48],42.4 µM
same,TGI,[49],78.7 µM
same,TGI,[50],79.3 µM
same,TGI,[51],31.7 µM
same,TGI,[52],> 100 µM
same,TGI,[54],> 100 µM
same,TGI,[55],> 100 µM
same,TGI,[56],> 100 µM
same,TGI,[57],> 100 µM
C1C2CC3CC1CC(c1nn4c(C56CC7CC(CC(C7)C5)C6)nnc4s1)(C2)C3,TGI,[1],> 100 µM
same,TGI,[2],> 100 µM
same,TGI,[3],> 100 µM
same,TGI,[4],> 100 µM
same,TGI,[5],> 100 µM
same,TGI,[6],> 100 µM
same,TGI,[8],> 100 µM
same,TGI,[9],> 100 µM
same,TGI,[10],> 100 µM
same,TGI,[11],> 100 µM
same,TGI,[12],> 100 µM
same,TGI,[13],> 100 µM
same,TGI,[14],> 100 µM
same,TGI,[58],> 100 µM
same,TGI,[15],> 100 µM
same,TGI,[59],> 100 µM
same,TGI,[16],> 100 µM
same,TGI,[17],> 100 µM
same,TGI,[19],> 100 µM
same,TGI,[20],> 100 µM
same,TGI,[21],> 100 µM
same,TGI,[22],> 100 µM
same,TGI,[23],> 100 µM
same,TGI,[24],> 100 µM
same,TGI,[25],> 100 µM
same,TGI,[26],> 100 µM
same,TGI,[27],> 100 µM
same,TGI,[28],> 100 µM
same,TGI,[29],> 100 µM
same,TGI,[30],> 100 µM
same,TGI,[31],> 100 µM
same,TGI,[32],> 100 µM
same,TGI,[33],> 100 µM
same,TGI,[34],> 100 µM
same,TGI,[35],> 100 µM
same,TGI,[36],> 100 µM
same,TGI,[37],> 100 µM
same,TGI,[38],> 100 µM
same,TGI,[39],> 100 µM
same,TGI,[40],> 100 µM
same,TGI,[41],> 100 µM
same,TGI,[42],> 100 µM
same,TGI,[43],> 100 µM
same,TGI,[44],> 100 µM
same,TGI,[45],> 100 µM
same,TGI,[46],> 100 µM
same,TGI,[47],> 100 µM
same,TGI,[48],> 100 µM
same,TGI,[49],> 100 µM
same,TGI,[50],> 100 µM
same,TGI,[51],> 100 µM
same,TGI,[52],> 100 µM
same,TGI,[54],> 100 µM
same,TGI,[55],> 100 µM
same,TGI,[56],> 100 µM
